Type in all cases: biochemical
Assay [1] concerns the target T1, CYP1A2 (Homo sapiens, UniProt P05177).
T1 construct: 0.1 mg/mL protein human liver microsomes (BD Gentest); tissue BD Gentest; host or cells: human liver microsomes
T1 sequence (P05177 1-516): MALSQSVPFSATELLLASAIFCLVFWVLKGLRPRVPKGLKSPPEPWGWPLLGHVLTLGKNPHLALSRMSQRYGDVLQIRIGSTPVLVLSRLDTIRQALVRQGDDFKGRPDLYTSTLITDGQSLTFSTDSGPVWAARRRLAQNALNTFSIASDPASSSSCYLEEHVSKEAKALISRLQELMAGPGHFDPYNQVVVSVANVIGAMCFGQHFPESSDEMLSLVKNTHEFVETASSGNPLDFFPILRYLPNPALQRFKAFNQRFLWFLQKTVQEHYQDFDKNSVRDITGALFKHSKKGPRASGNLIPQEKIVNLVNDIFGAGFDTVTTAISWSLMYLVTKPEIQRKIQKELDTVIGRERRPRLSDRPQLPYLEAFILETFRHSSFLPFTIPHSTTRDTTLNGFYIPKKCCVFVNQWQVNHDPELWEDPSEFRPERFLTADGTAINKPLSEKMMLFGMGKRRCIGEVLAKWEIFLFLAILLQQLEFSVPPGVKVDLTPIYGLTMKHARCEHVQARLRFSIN
Kind of assay: Cocktail assay for CYPs, phenacetin O-deethylation (CYP1A2), human liver microsomes. The conditions noted are these: 10 μM phenacetin, 0.1 mg/mL human liver microsomes, 10 min at 37° C.; read-out: CYP IC50 (nM) 1A2. In short, it runs like this:
(§1)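 Pooled human liver microsomes (0.1 mg/mL) with a probe cocktail of 10 μM phenacetin, 5 μM dextromethorphan and 2 μM midazolam plus NADPH, pH 7.4, 10 min at 37° C. Each metabolite was quantified by LC/MS/MS against a tolbutamide internal standard. IC50 came from % inhibition at 6 concentrations (e.g. 0.0032–10 μM) by non-linear regression.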

Assay [2] concerns the target T2, CYP2C9 (Homo sapiens, UniProt P11712).
T2 construct: 0.1 mg/mL protein human liver microsomes (BD Gentest); tissue BD Gentest; host or cells: human liver microsomes
Kind of assay: Cocktail assay for CYPs, diclofenac 4′-hydroxylation (CYP2C9), human liver microsomes. The conditions noted are these: 5 μM diclofenac, 0.1 mg/mL human liver microsomes, 10 min at 37° C.; read-out: CYP IC50 (nM) 2C9. In short, it runs like this: (§2)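 Pooled human liver microsomes (0.1 mg/mL) with probe cocktail incl. 5 μM diclofenac (CYP2C9) and 30 μM mephenytoin (CYP2C19), 1 mM NADPH, pH 7.4 phosphate buffer, 10 min at 37° C. Metabolites quantified by LC/MS/MS against internal standard; % inhibition versus no-inhibitor control, IC50 by non-linear regression.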
In general terms: Liver microsomes are vesicles of endoplasmic reticulum, rich in cytochrome P450 enzymes.

The target in assay [3] is T3, CYP2C19 (Homo sapiens, UniProt P33261).
T3 construct: 0.1 mg/mL protein human liver microsomes (BD Gentest); tissue BD Gentest; host or cells: human liver microsomes
Description: Cocktail assay for CYPs, mephenytoin 4′-hydroxylation (CYP2C19), human liver microsomes. As to conditions: 30 μM mephenytoin, 0.1 mg/mL human liver microsomes, 10 min at 37° C.; read-out: CYP IC50 (nM) 2C19. In short, it runs like this:
as §2

Assay [4] has as its target T4, CYP2D6 (Homo sapiens, UniProt P10635).
T4 construct: 0.1 mg/mL protein human liver microsomes (BD Gentest); tissue BD Gentest; host or cells: human liver microsomes
Description: Cocktail assay for CYPs, dextromethorphan O-demethylation (CYP2D6), human liver microsomes. The conditions noted are these: 5 μM dextromethorphan, 0.1 mg/mL human liver microsomes, 10 min at 37° C.; read-out: CYP IC50 (nM) 2D6. In short, it runs like this: as §1

In assay [5] the target is T5, CYP3A4 (Homo sapiens, UniProt P08684). Description: Cocktail assay for CYPs, midazolam 1′-hydroxylation (CYP3A4), human liver microsomes. On the set-up: 0.1 mg/mL protein human liver microsomes (BD Gentest); tissue BD Gentest; host or cells: human liver microsomes. The conditions noted are these: 2 μM midazolam, 0.1 mg/mL human liver microsomes, 10 min at 37° C.; read-out: CYP IC50 (nM) 3A4 (MDZ). In short, it runs like this: as §1
Target sequence in this assay (P08684 whole entry): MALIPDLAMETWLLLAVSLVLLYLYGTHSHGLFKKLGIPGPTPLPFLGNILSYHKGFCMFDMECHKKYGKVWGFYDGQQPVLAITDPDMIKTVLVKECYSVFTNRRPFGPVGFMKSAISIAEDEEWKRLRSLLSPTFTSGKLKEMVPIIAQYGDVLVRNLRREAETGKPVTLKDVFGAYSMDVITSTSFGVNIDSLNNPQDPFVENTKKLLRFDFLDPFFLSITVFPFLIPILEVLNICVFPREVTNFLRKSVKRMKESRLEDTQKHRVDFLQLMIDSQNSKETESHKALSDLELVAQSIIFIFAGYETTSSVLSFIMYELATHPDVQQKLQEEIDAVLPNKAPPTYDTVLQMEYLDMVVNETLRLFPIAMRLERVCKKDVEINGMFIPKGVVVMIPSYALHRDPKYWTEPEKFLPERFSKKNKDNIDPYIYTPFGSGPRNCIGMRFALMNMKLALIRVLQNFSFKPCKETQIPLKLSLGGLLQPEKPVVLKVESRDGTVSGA

Assay [6] deals with T5, CYP3A4. Kind of assay: IC50 vs CYP3A by inhibition of lopinavir metabolism in human liver microsomes. On the set-up: 0.01 mg/mL protein human liver microsomes (BD Gentest); tissue BD Gentest; host or cells: human liver microsomes. The conditions noted are these: 1.5 μM lopinavir, 0.01 mg/mL human liver microsomes, 8 min at 37° C.; read-out: CYP IC50 (nM) 3A4 (LPV). In short, it runs like this:
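Human liver microsomes (0.01 mg/mL) with 1.5 μM lopinavir, 1 mM NADPH, 3.3 mM MgCl2 in 100 mM potassium phosphate pH 7.4, 8 min at 37 °C, six compound concentrations. Summed M2/M3/M4 hydroxy metabolites quantified by LC/MS/MS against tolbutamide; % inhibition normalised between no-inhibitor and 5 μM ketoconazole controls, IC50 by non-linear regression.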
Target sequence in this assay (P08684 2-503): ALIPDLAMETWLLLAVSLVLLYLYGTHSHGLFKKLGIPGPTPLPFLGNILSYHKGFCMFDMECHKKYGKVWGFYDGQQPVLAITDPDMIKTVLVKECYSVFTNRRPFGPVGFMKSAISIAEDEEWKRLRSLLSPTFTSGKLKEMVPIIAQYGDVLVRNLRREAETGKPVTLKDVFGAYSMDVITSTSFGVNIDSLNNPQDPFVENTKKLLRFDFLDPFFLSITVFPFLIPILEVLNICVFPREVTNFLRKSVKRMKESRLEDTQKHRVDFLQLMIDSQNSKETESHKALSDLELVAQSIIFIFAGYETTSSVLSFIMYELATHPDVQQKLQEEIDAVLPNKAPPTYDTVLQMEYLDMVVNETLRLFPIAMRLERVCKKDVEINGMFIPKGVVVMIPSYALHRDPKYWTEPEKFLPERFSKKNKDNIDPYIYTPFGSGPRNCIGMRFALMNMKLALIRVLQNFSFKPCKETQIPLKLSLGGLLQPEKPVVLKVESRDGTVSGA

The structures appear in SMILES notation.

The record followed here is patent publication US9975888B2, “Aryl linked imidazole and triazole derivatives and methods of use thereof for improving the pharmacokinetics of a drug” (MERCK SHARP & DOHME CORP., priority 2013, dated 2018).

Broadly, the IC50 is the concentration needed to halve the response being measured.

T2 sequence (P11712 whole entry): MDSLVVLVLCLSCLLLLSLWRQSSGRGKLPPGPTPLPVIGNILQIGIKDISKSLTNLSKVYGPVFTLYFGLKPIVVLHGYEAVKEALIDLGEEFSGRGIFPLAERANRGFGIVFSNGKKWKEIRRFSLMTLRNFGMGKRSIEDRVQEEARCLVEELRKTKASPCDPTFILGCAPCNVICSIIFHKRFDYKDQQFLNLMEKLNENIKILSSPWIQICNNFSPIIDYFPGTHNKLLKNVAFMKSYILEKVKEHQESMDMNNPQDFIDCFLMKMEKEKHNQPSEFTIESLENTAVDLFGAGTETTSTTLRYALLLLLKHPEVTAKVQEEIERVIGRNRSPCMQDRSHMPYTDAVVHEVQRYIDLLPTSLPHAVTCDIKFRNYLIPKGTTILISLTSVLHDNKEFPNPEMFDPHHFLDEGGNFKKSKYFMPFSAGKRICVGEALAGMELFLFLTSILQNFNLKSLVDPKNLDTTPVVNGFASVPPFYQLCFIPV
T4 sequence (P10635 whole entry): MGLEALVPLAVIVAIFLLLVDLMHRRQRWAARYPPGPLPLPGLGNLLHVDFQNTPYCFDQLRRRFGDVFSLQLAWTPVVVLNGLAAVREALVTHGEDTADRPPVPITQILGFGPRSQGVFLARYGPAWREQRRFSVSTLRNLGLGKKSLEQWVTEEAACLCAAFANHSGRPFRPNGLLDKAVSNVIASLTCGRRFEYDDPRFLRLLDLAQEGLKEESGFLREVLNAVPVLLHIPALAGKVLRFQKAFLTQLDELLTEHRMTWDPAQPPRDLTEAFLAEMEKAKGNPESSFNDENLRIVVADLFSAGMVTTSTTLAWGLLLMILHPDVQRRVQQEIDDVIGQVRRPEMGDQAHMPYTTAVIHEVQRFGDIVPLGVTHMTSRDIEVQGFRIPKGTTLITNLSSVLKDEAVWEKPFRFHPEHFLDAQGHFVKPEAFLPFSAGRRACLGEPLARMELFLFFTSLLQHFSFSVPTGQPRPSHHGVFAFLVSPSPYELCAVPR
T3 sequence (P33261 whole entry): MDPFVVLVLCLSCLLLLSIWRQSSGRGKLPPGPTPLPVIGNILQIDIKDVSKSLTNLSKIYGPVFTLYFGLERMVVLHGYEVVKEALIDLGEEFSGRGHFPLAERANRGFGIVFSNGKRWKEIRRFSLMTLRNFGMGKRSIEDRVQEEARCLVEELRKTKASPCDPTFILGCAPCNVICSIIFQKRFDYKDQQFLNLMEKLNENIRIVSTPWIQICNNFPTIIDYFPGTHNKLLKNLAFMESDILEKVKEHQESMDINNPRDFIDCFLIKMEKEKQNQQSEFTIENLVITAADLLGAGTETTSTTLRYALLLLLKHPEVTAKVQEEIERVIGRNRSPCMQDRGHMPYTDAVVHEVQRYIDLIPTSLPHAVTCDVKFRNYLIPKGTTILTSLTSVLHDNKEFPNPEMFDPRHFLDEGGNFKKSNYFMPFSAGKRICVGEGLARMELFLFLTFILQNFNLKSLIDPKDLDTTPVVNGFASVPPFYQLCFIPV

Regarding `CN1CCN(c2ncc(S(=O)(=O)NC(c3ccccc3)c3ccccc3-c3cncn3CCc3ccc(F)cc3)s2)CC1` (stereo not drawn) [Compound 5, N-((2-(1-(4-fluorophenethyl)-1H-imidazol-5-yl)phenyl) (phenyl)methyl)-2-(4-methylpiperazin-1-yl)thiazole-5-sulfonamide], the IC50 in assay [1] was more than 10000 nM; in assay [2] it was more than 10000 nM; in assay [3] it was more than 10000 nM; in assay [4], more than 10000 nM; in assay [5], 65 nM; in assay [6], 80 nM.
Take `O=S(=O)(c1cnc(N2CCN3C[C@H](O)C[C@H]3C2)s1)N1CCc2c(cccc2-c2cncn2CCc2ccc(F)cc2)C1` [Compound 64, (7R,8aS)-2-(5-((5-(1-(4-fluorophenethyl)-1H-imidazol-5-yl)-3,4-dihydroisoquinolin-2(1H)-yl)sulfonyl)thiazol-2-yl)octahydro-pyrrolo[1,2-a] pyrazin-7-ol]: the IC50 in assay [1] is more than 10000 nM; in assay [2] it was 3550 nM; in assay [3], 4230 nM; in assay [4], 3130 nM; in assay [5], 4.7 nM; in assay [6] it was 1.6 nM.
`O=C(C1CC1)N1CCCC1c1cccc(-c2cncn2CCc2ccc(F)cc2)c1` (stereo not drawn) [Compound 47, cyclopropyl(2-(3-(1-(4-fluorophenethyl)-1H-imidazol-5-yl)phenyl)pyrrolidin-1-yl)methanone]: the IC50 in assay [1] was determined as 2080 nM; in assay [2], 2330 nM; in assay [3] it was 1010 nM; in assay [4], 2500 nM; in assay [5], 14.9 nM; in assay [6] it was 16.7 nM.
With `O=S(=O)(NCc1ccccc1-c1cncn1CCc1ccc(F)cc1)c1cccnc1` [Compound 17, N-(2-(1-(4-fluorophenethyl)-1H-imidazol-5-yl)benzyl)pyridine-3-sulfonamide], the IC50 is more than 10000 nM in assay [1]; more than 10000 nM in assay [2]; more than 10000 nM in assay [3]; 5200 nM in assay [4]; 10.5 nM in assay [5]; 35.9 nM in assay [6].
`CN1CCN(c2ncc(S(=O)(=O)N3CCc4c(ncnc4-c4cncn4CCc4ccc(F)cc4)C3)s2)CC1` [Compound 67, 5-((4-(1-(4-fluorophenethyl)-1H-imidazol-5-yl)-5,6-dihydropyrido[3,4-d]pyrimidin-7(8H)-yl)sulfonyl)-2-(4-methylpiperazin-1-yl)thiazole]: the IC50 in assay [1] was more than 10000 nM; in assay [2], more than 10000 nM; in assay [3], more than 10000 nM; in assay [4], 6510 nM; in assay [5] it was 123 nM; in assay [6] it was more than 100 nM.
For `O=C(c1cccnc1)N1CCCC1c1cccc(-c2cncn2CCc2ccc(F)cc2)c1` (single isomer, unassigned) [Compound 48b, (R or S)-(2-(3-(1-(4-fluorophenethyl)-1H-imidazol-5-yl)phenyl)pyrrolidin-1-yl) (pyridin-3-yl) methanone], the IC50 was more than 10000 nM in assay [1]; 9840 nM in assay [2]; 4800 nM in assay [3]; 3880 nM in assay [4]; 41.2 nM in assay [5]; more than 100 nM in assay [6].
As for `CN(C)c1ccc(S(=O)(=O)N2CCc3c(cccc3-c3cncn3CCc3ccc(F)cc3)C2)cn1` [Compound 61, 5-((5-(1-(4-fluorophenethyl)-1H-imidazol-5-yl)-3,4-dihydroisoquinolin-2(1H)-yl)sulfonyl)-N,N-dimethyl-pyridin-2-amine], the IC50 in assay [1] stood at 4620 nM; in assay [2], 1050 nM; in assay [3] it was 65 nM; in assay [4], 3250 nM; in assay [5], 7.6 nM; in assay [6] it was 1.4 nM.
Regarding `O=S(=O)(c1cnc(Cl)c(Br)c1)N1CCCC1c1ccccc1-c1cncn1CCc1ccc(F)cc1` (stereo not drawn) [Compound 25, 3-bromo-2-chloro-5-((2-(2-(1-(4-fluoro-phenethyl)-1H-imidazol-5-yl)phenyl)pyrrolidin-1-yl)sulfonyl) pyridine], the IC50 in assay [1] amounted to 9490 nM; in assay [2], 2220 nM; in assay [3], 1890 nM; in assay [4], 2140 nM; in assay [5] it was 50.3 nM; in assay [6], 23 nM.
Consider `CN1CCN(c2ncc(S(=O)(=O)N3CCc4c(-c5cncn5CCc5ccc(F)cc5)ccnc4C3)s2)CC1` [Compound 66, 5-((4-(1-(4-fluorophenethyl)-1H-imidazol-5-yl)-5,6-dihydro-1,7-naphthyridin-7(8H)-yl)sulfonyl)-2-(4-methylpiperazin-1-yl)thiazole], for which the IC50 in assay [1] was 2680 nM; in assay [2], more than 10000 nM; in assay [3], more than 10000 nM; in assay [4], more than 10000 nM; in assay [5], 22.4 nM; in assay [6], 23.8 nM.
For the compound `O=C(C1CCOCC1)N1CCCC1c1ccccc1-c1cncn1CCc1ccc(F)cc1` (stereo not drawn) [Compound 41, (2-(2-(1-(4-fluorophenethyl)-1H-imidazol-5-yl)phenyl)pyrrolidin-1-yl)(tetrahydro-2H-pyran-4-yl)methanone], the IC50 in assay [1] is more than 10000 nM; in assay [2], more than 10000 nM; in assay [3], more than 10000 nM; in assay [4], more than 10000 nM; in assay [5] it was 10.7 nM; in assay [6], 11.1 nM.
`O=C(c1cccnc1)N1CCCC1c1ccccc1-c1cncn1CCc1ccc(F)cc1` (single isomer, unassigned) [Compound 42a, (R or S)-(2-(2-(1-(4-fluorophenethyl)-1H-imidazol-5-yl)phenyl)pyrrolidin-1-yl) (pyridin-3-yl) methanone]: the IC50 in assay [1] is more than 10000 nM; in assay [2], more than 10000 nM; in assay [3], more than 10000 nM; in assay [4], 1830 nM; in assay [5] it was 64.4 nM; in assay [6], not below 100 nM.
In the case of `CC(=O)Nc1ncc(S(=O)(=O)N2CCCC2c2ccccc2-c2cncn2CCc2ccc(F)cc2)s1` (stereo not drawn) [Compound 21, N-(5-((2-(2-(1-(4-fluorophenethyl)-1H-imidazol-5-yl)phenyl)pyrrolidin-1-yl)sulfonyl)thiazol-2-yl) acetamide], the IC50 in assay [1] amounted to 5890 nM; in assay [2], 4410 nM; in assay [3], 4190 nM; in assay [4] it was 4050 nM; in assay [5] it was 13.7 nM; in assay [6], 5.6 nM.
Regarding `COCCN(C)c1ccc(S(=O)(=O)N2CCc3c(cccc3-c3cncn3CCc3ccc(F)cc3)C2)cn1` [Compound 62, 5-((5-(1-(4-fluorophenethyl)-1H-imidazol-5-yl)-3,4-dihydroisoquinolin-2(1H)-yl)sulfonyl)-N-(2-methoxy-ethyl)-N-methylpyridin-2-amine], the IC50 is more than 10000 nM in assay [1]; 575 nM in assay [2]; 238 nM in assay [3]; 2720 nM in assay [4]; 5.2 nM in assay [5]; 1.3 nM in assay [6].
As to `CC(=O)Nc1ncc(S(=O)(=O)N2CCc3cc(-c4cncn4CCc4ccc(F)cc4)ccc3C2)s1` [Compound 1, N-(5-((6-(1-(4-fluorophenethyl)-1H-imidazol-5-yl)-3,4-dihydroisoquinolin-2(1H)-yl)sulfonyl)thiazol-2-yl)acetamide], the IC50 in assay [1] worked out at 1450 nM; in assay [2] it was 10 nM; in assay [3], 44 nM; in assay [4] it was 765 nM; in assay [5] it was 11 nM; in assay [6] it was 2.3 nM.
